According to ChEMBL document CHEMBL4251634, “Synthesis and antimicrobial activity of pyrimidinyl 1,3,4-oxadiazoles, 1,3,4-thiadiazoles and 1,2,4-triazoles” (2018):
Activity calls are given as the source filed them. The rule behind the calls is not given here.

Legend:
Format in all cases: functional
Aspergillus niger [1] = test: Antifungal activity against Aspergillus niger assessed as diameter of inhibition zone at 12.5 ug/well after 48 hrs by agar well diffusion method; conditions: for zone of inhibition at 12.5 µg/disc: read-out: DIZ
Aspergillus niger [2] = test: Antifungal activity against Aspergillus niger assessed as diameter of inhibition zone at 25 ug/well after 48 hrs by agar well diffusion method; conditions: for zone of inhibition at 25 µg/disc: read-out: DIZ
Aspergillus niger [3] = test: Antifungal activity against Aspergillus niger assessed as diameter of inhibition zone at 50 ug/well after 48 hrs by agar well diffusion method; conditions: for zone of inhibition at 50 µg/disc: read-out: DIZ
Aspergillus niger [4] = test: Antifungal activity against Aspergillus niger assessed as diameter of inhibition zone at 100 ug/well after 48 hrs by agar well diffusion method; conditions: for zone of inhibition at 100 µg/disc: read-out: DIZ
Penicillium chrysogenum [5] = test: Antifungal activity against Penicillium chrysogenum assessed as diameter of inhibition zone at 12.5 ug/well after 48 hrs by agar well diffusion method; conditions: for zone of inhibition at 12.5 µg/disc: read-out: DIZ
Penicillium chrysogenum [6] = test: Antifungal activity against Penicillium chrysogenum assessed as diameter of inhibition zone at 25 ug/well after 48 hrs by agar well diffusion method; conditions: for zone of inhibition at 25 µg/disc: read-out: DIZ
Penicillium chrysogenum [7] = test: Antifungal activity against Penicillium chrysogenum assessed as diameter of inhibition zone at 50 ug/well after 48 hrs by agar well diffusion method; conditions: for zone of inhibition at 50 µg/disc: read-out: DIZ
Penicillium chrysogenum [8] = test: Antifungal activity against Penicillium chrysogenum assessed as diameter of inhibition zone at 100 ug/well after 48 hrs by agar well diffusion method; conditions: for zone of inhibition at 100 µg/disc: read-out: DIZ
Aspergillus niger [9] = test: Antifungal activity against Aspergillus niger after 48 hrs by turbidity-based broth dilution assay
Penicillium chrysogenum [10] = test: Antifungal activity against Penicillium chrysogenum after 48 hrs by turbidity-based broth dilution assay
Staphylococcus aureus [11] = test: Antibacterial activity against Staphylococcus aureus assessed as diameter of inhibition zone at 12.5 ug/well after 24 hrs by agar well diffusion method
Staphylococcus aureus [12] = test: Antibacterial activity against Staphylococcus aureus assessed as diameter of inhibition zone at 25 ug/well after 24 hrs by agar well diffusion method; conditions: for zone of inhibition at 25 µg/disc: read-out: DIZ
Staphylococcus aureus [13] = test: Antibacterial activity against Staphylococcus aureus assessed as diameter of inhibition zone at 50 ug/well after 24 hrs by agar well diffusion method; conditions: for zone of inhibition at 50 µg/disc: read-out: DIZ
Staphylococcus aureus [14] = test: Antibacterial activity against Staphylococcus aureus assessed as diameter of inhibition zone at 100 ug/well after 24 hrs by agar well diffusion method; conditions: for zone of inhibition at 100 µg/disc: read-out: DIZ
Bacillus subtilis [15] = test: Antibacterial activity against Bacillus subtilis assessed as diameter of inhibition zone at 12.5 ug/well after 24 hrs by agar well diffusion method; conditions: for zone of inhibition at 12.5 µg/disc: read-out: DIZ
Bacillus subtilis [16] = test: Antibacterial activity against Bacillus subtilis assessed as diameter of inhibition zone at 25 ug/well after 24 hrs by agar well diffusion method; conditions: for zone of inhibition at 25 µg/disc: read-out: DIZ
Bacillus subtilis [17] = test: Antibacterial activity against Bacillus subtilis assessed as diameter of inhibition zone at 50 ug/well after 24 hrs by agar well diffusion method; conditions: for zone of inhibition at 50 µg/disc: read-out: DIZ
Bacillus subtilis [18] = test: Antibacterial activity against Bacillus subtilis assessed as diameter of inhibition zone at 100 ug/well after 24 hrs by agar well diffusion method; conditions: for zone of inhibition at 100 µg/disc: read-out: DIZ
Pseudomonas aeruginosa [19] = test: Antibacterial activity against Pseudomonas aeruginosa assessed as diameter of inhibition zone at 12.5 ug/well after 24 hrs by agar well diffusion method; conditions: for zone of inhibition at 12.5 µg/disc: read-out: DIZ
Pseudomonas aeruginosa [20] = test: Antibacterial activity against Pseudomonas aeruginosa assessed as diameter of inhibition zone at 25 ug/well after 24 hrs by agar well diffusion method; conditions: for zone of inhibition at 25 µg/disc: read-out: DIZ
Pseudomonas aeruginosa [21] = test: Antibacterial activity against Pseudomonas aeruginosa assessed as diameter of inhibition zone at 50 ug/well after 24 hrs by agar well diffusion method; conditions: for zone of inhibition at 50 µg/disc: read-out: DIZ
Pseudomonas aeruginosa [22] = test: Antibacterial activity against Pseudomonas aeruginosa assessed as diameter of inhibition zone at 100 ug/well after 24 hrs by agar well diffusion method; conditions: for zone of inhibition at 100 µg/disc: read-out: DIZ
Klebsiella pneumoniae [23] = test: Antibacterial activity against Klebsiella pneumoniae assessed as diameter of inhibition zone at 12.5 ug/well after 24 hrs by agar well diffusion method; conditions: for zone of inhibition at 12.5 µg/disc: read-out: DIZ
Klebsiella pneumoniae [24] = test: Antibacterial activity against Klebsiella pneumoniae assessed as diameter of inhibition zone at 25 ug/well after 24 hrs by agar well diffusion method; conditions: for zone of inhibition at 25 µg/disc: read-out: DIZ
Klebsiella pneumoniae [25] = test: Antibacterial activity against Klebsiella pneumoniae assessed as diameter of inhibition zone at 50 ug/well after 24 hrs by agar well diffusion method; conditions: for zone of inhibition at 50 µg/disc: read-out: DIZ
Klebsiella pneumoniae [26] = test: Antibacterial activity against Klebsiella pneumoniae assessed as diameter of inhibition zone at 100 ug/well after 24 hrs by agar well diffusion method; conditions: for zone of inhibition at 100 µg/disc: read-out: DIZ

## CC(=O)N1CCN(c2ccc(OCC3COC(Cn4ccnc4)(c4ccc(Cl)cc4Cl)O3)cc2)CC1 (configuration not stated) [KETOCONAZOLE]
Aspergillus niger [1]
  zone of inhibition at 12.5 µg/disc: 29 mm
Aspergillus niger [2]
  zone of inhibition at 25 µg/disc: 31 mm
Aspergillus niger [3]
  zone of inhibition at 50 µg/disc: 34 mm
Aspergillus niger [4]
  zone of inhibition at 100 µg/disc: 37 mm
Penicillium chrysogenum [5]
  zone of inhibition at 12.5 µg/disc: 34 mm
Penicillium chrysogenum [6]
  zone of inhibition at 25 µg/disc: 36 mm
Penicillium chrysogenum [7]
  zone of inhibition at 50 µg/disc: 37 mm
Penicillium chrysogenum [8]
  zone of inhibition at 100 µg/disc: 39 mm
Aspergillus niger [9]
  MIC: 6.25 µg
Penicillium chrysogenum [10]
  MIC: 12.5 µg

## COc1ccc(-c2nnc(CSc3cc(C)nc(SCc4nnc(-c5ccc(OC)cc5)o4)n3)o2)cc1
Staphylococcus aureus [11]
  diameter of the inhibition zone (DIZ): inactive
Staphylococcus aureus [12]
  diameter of the inhibition zone (DIZ): inactive
Staphylococcus aureus [13]
  diameter of the inhibition zone (DIZ): inactive
Staphylococcus aureus [14]
  diameter of the inhibition zone (DIZ): inactive
Bacillus subtilis [15]
  diameter of the inhibition zone (DIZ): inactive
Bacillus subtilis [16]
  diameter of the inhibition zone (DIZ): inactive
Bacillus subtilis [17]
  diameter of the inhibition zone (DIZ): inactive
Bacillus subtilis [18]
  diameter of the inhibition zone (DIZ): inactive
Pseudomonas aeruginosa [19]
  diameter of the inhibition zone (DIZ): inactive
Pseudomonas aeruginosa [20]
  diameter of the inhibition zone (DIZ): inactive
Pseudomonas aeruginosa [21]
  diameter of the inhibition zone (DIZ): inactive
Pseudomonas aeruginosa [22]
  diameter of the inhibition zone (DIZ): inactive
Klebsiella pneumoniae [23]
  diameter of the inhibition zone (DIZ): inactive
Klebsiella pneumoniae [24]
  diameter of the inhibition zone (DIZ): inactive
Klebsiella pneumoniae [25]
  diameter of the inhibition zone (DIZ): inactive
Klebsiella pneumoniae [26]
  diameter of the inhibition zone (DIZ): inactive
Aspergillus niger [1]
  diameter of the inhibition zone (DIZ): inactive
Aspergillus niger [2]
  diameter of the inhibition zone (DIZ): inactive
Aspergillus niger [3]
  diameter of the inhibition zone (DIZ): inactive
Aspergillus niger [4]
  diameter of the inhibition zone (DIZ): inactive
Penicillium chrysogenum [5]
  diameter of the inhibition zone (DIZ): inactive
Penicillium chrysogenum [6]
  diameter of the inhibition zone (DIZ): inactive
Penicillium chrysogenum [7]
  diameter of the inhibition zone (DIZ): inactive
Penicillium chrysogenum [8]
  diameter of the inhibition zone (DIZ): inactive

## Cc1cc(SCc2nnc(-c3ccc([N+](=O)[O-])cc3)o2)nc(SCc2nnc(-c3ccc([N+](=O)[O-])cc3)o2)n1
Staphylococcus aureus [11]
  diameter of the inhibition zone (DIZ): inactive
Staphylococcus aureus [12]
  zone of inhibition at 25 µg/disc: 7 mm
Staphylococcus aureus [13]
  zone of inhibition at 50 µg/disc: 8 mm
Staphylococcus aureus [14]
  zone of inhibition at 100 µg/disc: 10 mm
Bacillus subtilis [15]
  zone of inhibition at 12.5 µg/disc: 9 mm
Bacillus subtilis [16]
  zone of inhibition at 25 µg/disc: 11 mm
Bacillus subtilis [17]
  zone of inhibition at 50 µg/disc: 13 mm
Bacillus subtilis [18]
  zone of inhibition at 100 µg/disc: 15 mm
Pseudomonas aeruginosa [19]
  zone of inhibition at 12.5 µg/disc: 11 mm
Pseudomonas aeruginosa [20]
  zone of inhibition at 25 µg/disc: 14 mm
Pseudomonas aeruginosa [21]
  zone of inhibition at 50 µg/disc: 16 mm
Pseudomonas aeruginosa [22]
  zone of inhibition at 100 µg/disc: 21 mm
Klebsiella pneumoniae [23]
  zone of inhibition at 12.5 µg/disc: 15 mm
Klebsiella pneumoniae [24]
  zone of inhibition at 25 µg/disc: 17 mm
Klebsiella pneumoniae [25]
  zone of inhibition at 50 µg/disc: 19 mm
Klebsiella pneumoniae [26]
  zone of inhibition at 100 µg/disc: 21 mm
Aspergillus niger [1]
  zone of inhibition at 12.5 µg/disc: 20 mm
Aspergillus niger [2]
  zone of inhibition at 25 µg/disc: 22 mm
Aspergillus niger [3]
  zone of inhibition at 50 µg/disc: 24 mm
Aspergillus niger [4]
  zone of inhibition at 100 µg/disc: 27 mm
Penicillium chrysogenum [5]
  zone of inhibition at 12.5 µg/disc: 12 mm
Penicillium chrysogenum [6]
  zone of inhibition at 25 µg/disc: 14 mm
Penicillium chrysogenum [7]
  zone of inhibition at 50 µg/disc: 16 mm
Penicillium chrysogenum [8]
  zone of inhibition at 100 µg/disc: 19 mm

## Cc1cc(SCc2nnc(-c3ccc(Br)cc3)n2N)nc(SCc2nnc(-c3ccc(Br)cc3)n2N)n1
Staphylococcus aureus [11]; read-out: DIZ
  zone of inhibition at 12.5 µg/disc: 9 mm
Staphylococcus aureus [12]
  zone of inhibition at 25 µg/disc: 10 mm
Staphylococcus aureus [13]
  zone of inhibition at 50 µg/disc: 12 mm
Staphylococcus aureus [14]
  zone of inhibition at 100 µg/disc: 14 mm
Bacillus subtilis [15]
  zone of inhibition at 12.5 µg/disc: 15 mm
Bacillus subtilis [16]
  zone of inhibition at 25 µg/disc: 16 mm
Bacillus subtilis [17]
  zone of inhibition at 50 µg/disc: 18 mm
Bacillus subtilis [18]
  zone of inhibition at 100 µg/disc: 20 mm
Pseudomonas aeruginosa [19]
  zone of inhibition at 12.5 µg/disc: 16 mm
Pseudomonas aeruginosa [20]
  zone of inhibition at 25 µg/disc: 20 mm
Pseudomonas aeruginosa [21]
  zone of inhibition at 50 µg/disc: 22 mm
Pseudomonas aeruginosa [22]
  zone of inhibition at 100 µg/disc: 25 mm
Klebsiella pneumoniae [23]
  zone of inhibition at 12.5 µg/disc: 21 mm
Klebsiella pneumoniae [24]
  zone of inhibition at 25 µg/disc: 23 mm
Klebsiella pneumoniae [25]
  zone of inhibition at 50 µg/disc: 25 mm
Klebsiella pneumoniae [26]
  zone of inhibition at 100 µg/disc: 28 mm
Aspergillus niger [1]
  zone of inhibition at 12.5 µg/disc: 27 mm
Aspergillus niger [2]
  zone of inhibition at 25 µg/disc: 29 mm
Aspergillus niger [3]
  zone of inhibition at 50 µg/disc: 31 mm
Aspergillus niger [4]
  zone of inhibition at 100 µg/disc: 34 mm
Penicillium chrysogenum [5]
  zone of inhibition at 12.5 µg/disc: 17 mm
Penicillium chrysogenum [6]
  zone of inhibition at 25 µg/disc: 19 mm
Penicillium chrysogenum [7]
  zone of inhibition at 50 µg/disc: 21 mm
Penicillium chrysogenum [8]
  zone of inhibition at 100 µg/disc: 24 mm
